Test results from US10035766B2, “Compositions for preventing and/or treating lysosomal storage disorders” (Amicus Therapeutics, Inc., priority 2009, dated 2018).
Counter-ions that a name gives are not always drawn. Like-named read-outs stand apart in the source and are kept apart here.

Key:
[1] = GCase enhancement in brain and spleen after oral dosing over 2 weeks; type: in vivo, mice; settings: male, C57BL/6, mouse, brain homogenate as diluted in the GCase assay, po, brain, read-out: Compound concentration in GCase assay
Experimental: The ability of orally administered test compounds ((3R,4R,5S)-5-(difluoromethyl)piperidine-3,4-diol, (3R,4R,5S)-5-(1-fluoroethyl)piperidine-3,4-diol, (3R,4R,5S)-5-((R)-1-fluoropropyl)piperidine-3,4-diol hydrochloride, or (3R,4R,5S)-5-benzylpiperidine-3,4-diol) to elevate GCase levels was assessed in mice. For this purpose, 8-week old wild-type male mice (C57BL/6) were administered a single p.o. (gavage) dose of a compound of the present invention (i.e., (3R,4R,5S)-5-(difluoromethyl)piperidine-3,4-diol, (3R,4R,5S)-5-(1-fluoroethyl)piperidine-3,4-diol, (3R,4R,5S)-5-((R)-1-fluoropropyl)piperidine-3,4-diol hydrochloride, or (3R,4R,5S)-5-benzylpiperidine-3,4-diol). The dosing solutions were prepared in water. Compounds were administered over 2 weeks as follows: week 1, Mon-Fri (On), Sat-Sun (Off); week 2, Mon-Thu (On); necropsy on Friday. Thus, a total of 9 doses (dosing solutions prepared fresh every day) were given to each mouse, with a 24-hour washout between the last dose and necropsy.
Plasma was collected by spinning blood at 2700 g for 10 minutes at 4° C. Liver, spleen, lung, and brain tissues were removed, washed in cold PBS, blotted dry, flash frozen on dry ice, and stored at −80° C. until analysis. GCase levels were measured by homogenizing approximately 50 mg tissue in 500 μL McIlvane (MI) buffer (100 mM sodium citrate, 200 mM sodium phosphate dibasic, 0.25% sodium taurocholate, and 0.1% Triton X-100, pH 5.2) at pH 5.2 for 3-5 seconds on ice with a micro homogenizer. Homogenates were then incubated at room temperature without and with 2.5 mM conduritol-B-epoxide (CBE) for 30 min. Finally, 3.7 mM 4-methylumbeliferryl-β-glucoside (4-MUG) substrate was added and incubated at 37° C. for 60 min. […] Fluorescence was measured on a plate reader for 1 sec/well using 355 nm excitation and 460 nm emission. Total protein was determined in lysates using the MicroBCA kit according to the manufacturer's instructions. A 4-methylumbelliferone (4-MU) standard curve ranging from 1.0 nM to 50 μM was run in parallel for conversion of raw fluorescence data to absolute GCase activity (in the presence and absence of CBE) and expressed as nanomoles of 4-MU released per milligram of protein per hour (nmol/mg protein/hr). GCase levels and protein levels were calculated using Microsoft Excel (Redmond, Wash.) and GraphPad Prism version 4.02.

[2] = Blood brain barrier penetration: plasma and brain levels after single oral dose; type: in vivo; settings: mice, single 30 mg/kg (free base equivalent) p.o.
Experimental: For this purpose, 8-week old wild-type male mice (C57BL/6) were administered a single 30 mg/kg (free base equivalent) p.o. dose of reference or test compound by gavage (n=3 mice per time point). Dosing solutions were prepared in water. After dosing, mice were euthanized with CO2 at the following time points: 0-, 0.5-, 1-, and 4-hour post-dose. […] Similarly, brains were collected from each mouse. Plasma was derived by spinning whole blood at 2,700×g for 10 minutes at 4° C. followed by storage on dry ice. Whole brains were washed in cold PBS to remove contaminating blood, blotted dry, flash frozen on dry ice, and ultimately stored at −80° C. until analysis. To prepare brain samples for analysis, 50-100 mg of tissue was homogenized in […] of water/mg tissue. Samples were then clarified by centrifugation. Next, 25 μl of the brain homogenate supernatant or 25 μl of plasma were combined with 25 μl of acetonitrile:water (95/5). […] Samples were again clarified by centrifugation and 75 μl of the supernatant was combined with 75 μl of acetonitrile. Samples were then analyzed for compound levels by LC-MS/MS at PPD Inc. (3230 Deming Way, Middleton, Wis. 53562). In brief, a Thermo Betasil, Silica-100, 50×3 mm, 5μ column equilibrated with a mixture of mobile phase consisting of 5 mM ammonium formate and 0.05% formic acid in (A) 95:5 acetonitrile:water or (B) 70:20:10 methanol:water:acetonitrile was employed. Between 20 and 30 μl sample was injected for analysis. For calculating drug concentrations, raw data for plasma (ng/mL) and brain (ng/g) was converted to nM using the molecular weight of respective compounds and assuming 1 g of tissue is equivalent to 1 mL volume. Concentration as a function of time was plotted in GraphPad Prism version 4.02.

[3] = target: T1, lysosomal GCase (Homo sapiens, UniProt P04062); assay: In situ lysosomal GCase inhibition and washout in fibroblasts from a normal subject (PFBFDβGlu substrate); type: cell-based; settings: for in situ washout: after 16-24 hours at IC90, single exponential fit of activity recovery over 8 hours
T1 construct: fibroblasts established from a normal subject; endogenous in cells; host or cells: fibroblasts established from a normal subject
T1 sequence (P04062 40-536): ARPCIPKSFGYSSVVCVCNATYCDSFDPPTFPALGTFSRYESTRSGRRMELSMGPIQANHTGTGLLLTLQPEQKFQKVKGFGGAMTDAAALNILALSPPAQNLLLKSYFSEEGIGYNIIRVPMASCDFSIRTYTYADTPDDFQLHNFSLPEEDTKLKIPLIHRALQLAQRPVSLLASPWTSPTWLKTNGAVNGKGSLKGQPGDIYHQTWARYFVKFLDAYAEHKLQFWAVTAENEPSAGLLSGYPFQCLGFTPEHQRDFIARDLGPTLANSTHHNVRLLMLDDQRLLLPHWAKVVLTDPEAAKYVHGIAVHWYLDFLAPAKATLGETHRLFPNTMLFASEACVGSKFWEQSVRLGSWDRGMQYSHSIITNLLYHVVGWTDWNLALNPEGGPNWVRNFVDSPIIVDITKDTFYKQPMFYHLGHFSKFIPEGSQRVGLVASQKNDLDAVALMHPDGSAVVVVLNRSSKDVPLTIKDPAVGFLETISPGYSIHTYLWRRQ
Experimental: The effect of the novel compounds of the present invention on lysosomal GCase activity was assayed in situ using fibroblasts established from a normal subject. Cells seeded in 48-well plates were incubated with the indicated concentrations of compound for 16-24 hours. For the dose-response assays, cells were incubated with the in situ substrate 5-(pentafluorobenzoylamino)fluorescein di-β-D-glucopyranoside (PFBFDβGlu) for 1 hour and subsequently lysed to determine the extent of substrate hydrolysis in the presence of compound. […] Inhibition was determined as the ratio of activity in the presence of compound to that in the absence of compound. […] Cells were washed extensively and incubated in drug-free medium to allow net compound efflux from cells. Cells were then tested for lysosomal GCase activity at 2 hour intervals over a total period of 8 hours following compound removal. The increase in activity over time was fitted with a single exponential function to determine the compound's washout time.

Structure (SMILES)	concentration at 24 h ([1]; 10 mg/kg, 10 mg/kg FBE p.o.) [nM]	blood brain barrier crossing compared to IFG-tartrate [2]	levels detected in brain compared to IFG-tartrate [2]	in situ washout from the lysosomal compartment compared to IFG-tartrate [3]	inhibition of GCase activity [3]	concentration at 24 h ([1]; 100 mg/kg, 100 mg/kg FBE p.o.) [nM]	in situ washout [3] [h]
CC(F)[C@H]1CNC[C@@H](O)[C@@H]1O (single isomer, unassigned)	0.2	crossed the blood brain barrier more readily as compared to IFG-tartrate	higher levels	considerably faster than reference compound IFG-tartrate	inhibited GCase activity	–	–
CC[C@@H](F)[C@H]1CNC[C@@H](O)[C@@H]1O.Cl [(3R,4R,5S)-5-((R)-1-fluoropropyl)-piperidine-3,4-diol hydrochloride]	–	crossed the blood brain barrier more readily as compared to IFG-tartrate	higher levels	–	inhibited GCase activity	0.1	–
O[C@@H]1[C@@H](Cc2ccccc2)CNC[C@H]1O [(3R,4R,5S)-5-benzyl-piperidine-3,4-diol]	–	crossed the blood brain barrier more readily as compared to IFG-tartrate	higher levels	considerably faster than reference compound IFG-tartrate	inhibited GCase activity	–	1.2 ± 0.13
O[C@H]1[C@H](O)CNC[C@@H]1C(F)F [Compound 6, (3R,4R,5S)-5-(Difluoromethyl)piperdine 3,4-diol Hydrochloride]	0.2	crossed the blood brain barrier more readily as compared to IFG-tartrate	higher levels	considerably faster than reference compound IFG-tartrate	inhibited GCase activity	1	2.1 ± 0.30
